Reference: US8076318B2, “Caged ligands and uses thereof” (priority 2002, dated 2011)

What was measured:
[1] = tested on: ecdysone-inducible gene expression system; details: cell-based systems; No et al., 1996; Albanese et al., 2000; cited from earlier work
EcR/RXR [2] = assay: Time-dependent luciferase assays after photolysis, with or without washing out extracellular ligand; format: cell-based
Procedure: Time-dependent luciferase assays. 293T cells were split in a 24-well culture plate (Becton Dickinson Labware, lot #353047) and were transfected by a calcium phosphate method. The cells in 500 μL culture medium were incubated with either 100 μM caged β-ecdysone, 100 μM β-ecdysone, or absent an ecdysteroid ligand. After the cells were incubated with caged β-ecdysone for 16 hours, the medium was removed and washed with PBS once. A fresh medium free of ligand was then immediately added just prior to UV light exposure for 1 min. In the “Caged+hv” experiment, the caged β-ecdysone ligand remained in the medium and these cells were likewise illuminated for 1 min. Cells that were not exposed to ecdysteroid ligand were treated in an otherwise analogous fashion. The cells were then returned to the incubator for various time intervals. Incubation was terminated by treating cells with an extraction buffer (1% Triton X-100 and 1 mM DTT in GME). Luciferase activity was preformed as described above.
Cells were pre-incubated with the caged β-ecdysone 4 for 16 hr, illuminated for 1 min, and then lysed at various time points following photolysis. […] The 293T cell line was pre-incubated with 4 for 16 hr, the media subsequently removed, and the cells washed with PBS. Ecdysone-free media was then added, the cell culture incubated for various time points, and tested for luciferase activity. The gene expression kinetic profile is nearly identical for the two sets of experiments [(4+photolysis) versus (4+washing+photolysis)] during the first 5 hr, which is consistent with the notion that caged β-ecdysone 4 is intracellularly liberated (FIG. 3).
What is the time-dependence of β-ecdysone-induced luciferase expression? We addressed this question by pre-incubating 293T cells with the caged derivative 4 for 16 hr followed by illumination for 1 min. Cells were subsequently incubated for various time intervals, lysed, and luciferase activity assessed. […]

EcR/RXR [3] = assay: Luciferase expression in transiently transfected 293T cells with and without 1 min illumination; format: cell-based; details: for Fold luciferase induction / Activity as inducing agent in the luciferase-based gene expression system (in words): 293T cells; for Fold luciferase induction: culture media/2% MeOH; for Activity as inducing agent in the luciferase-based gene expression system (in words): without light
Excerpt: Plasmid Description. The luciferase reporter (E/GRE)6TK81LUC consists of multimeric E/GRE binding sites from (E/GRE)4ΔMTVLuc linked to the minimal TK promoter in the pA3LUC reporter plasmid. The modified MMTV promoter from MMTVp206 that incorporates the 5′UTR of v-Ha-ras was inserted into a vector containing a modified ecdysone receptor VgEcR (a gift from R. Evans) to form MMTV-VgEcR.
Cell Culture, DNA Transfection, and Luciferase Assays. Cell culture, DNA transfection, and luciferase assays were performed as previously described (Wantanable et al., 1966). Briefly, 293-derived BOSC cells (293T) were seeded into individual wells of a 24 well plate and maintained in Dulbecco's modified Eagles medium with 10% fetal calf serum and 1% penicillin/streptomycin. Cells were transiently transfected with pVgEcR/RXRα and (E/GRE)6TKLUC via a standard calcium phosphate method. The media was changed after 14 hr and the cells treated with 10 μL of 5 mM β-ecdysone 1 (FIG. 1) in methanol (to furnish a 100 μM final concentration of ecdysteroid). Cells were either left un-illuminated or illuminated for 1 min using an Oriel 200 W Hg arc lamp (model 6283) with a 348 nm filter (Oriel, lot number 51260, 50% internal transmittance at 348 nm and cutoff at <325 nm) to remove short wavelength light and two IR filters to remove heat. Cells were subsequently lysed as previously described and the luciferase assay performed at room temperature using an Autolumat LB 953 (EG & G, Berthold). Luciferase content was measured by calculating the light emitted during 10 sec of the reaction. The values are expressed in arbitrary light units.
Light-Driven Luciferase Expression in Transiently Transfected 293T Cells. We employed a luciferase-based expression system to examine the biological activity of β-ecdysone and its alkylated analog 4. The 293T cell line was transiently transfected to constitutively express EcR/RXR and inducibly express (upon exposure to β-ecdysone) luciferase. Compound 4 was added to the transfected 293T cells, the cell culture subsequently illuminated, and luciferase activity assessed (Table 1). There is little observable luciferase activity with culture media alone. Exposure of the cells to the bioactive β-ecdysone 1 generates a nearly 90-fold induction of luciferase. By contrast, the caged analog 4 furnishes a slight 6-fold induction of activity over that of culture media alone. […] The latter is consistent with our observation that a 1 min photolysis time window converts approximately 60% of the caged derivative 4 into its bioactive counterpart 1. Finally, illumination in the absence of ligand fails to induce luciferase production.

[4] = Photolysis of caged β-ecdysone 4, HPLC analysis and ferrioxalate actinometry; format: physicochemical; details: ferrioxalate actinometry, HPLC peak areas
Procedure: Photolysis of Caged β-ecdysone 4. A 500 μL 100 μM solution of 4 in 2% methanol/98% water was placed in a 24-well culture plate. Photolysis was performed using an Oriel 200 W Hg arc lamp (model 6283) with a 348 nm filter (Oriel, lot number 51260; 50% internal transmittance at 348 nm and cutoff at 325 nm) to remove short wavelength light and an IR filter to remove heat. Aliquots of 10 μL were removed at different time points of photolysis and were analyzed by analytical HPLC (monitored at 242 nm) employing a Vydac C4 (250 mm×3.0 mm) column and using the following solvent system: a linear gradient from 95% A (water):5% B (acetonitrile) to 50% A (water):50% (acetonitrile) over 15 min followed by 50% A (water):50% B (acetonitrile) for 5 min with flow rate at 1 mL/min.
Photoconversion of Caged β-Ecdysone 4 to β-Ecdysone 1. A preliminary assessment of the light-induced conversion of the caged analog 4 to β-ecdysone 1 was performed using a 24-well plate system. […] Aliquots from the wells were subsequently analyzed by HPLC to assess formation of 1 (data not shown). […] The photochemical quantum yield (φ=0.034) was determined using ferrioxalate actinometry (Hatchard & Parker, 1956) according to the equation φ=ΔP/(I×t), where t is the irradiation time, ΔP is the amount of photolabile converted, and was determined using HPLC peak areas.

EcR/RXR [5] = assay: Immunodetection of intracellularly expressed luciferase, spot illumination; format: cell-based; details: 293T cells; for Luciferase expression by immunofluorescence, without illumination: 100 μM, 16 hr incubation, no light; for Luciferase expression by immunofluorescence after spot illumination: 4 washed out, spot illuminated (~0.25 mm^2) 10 sec, 6 hr incubation
Procedure: Immunodetection of Intracellularly Expressed Luciferase. 293T cells were transferred to the individual wells of a 24-well culture plate (Becton Dickinson Labware, lot #353047) and transfected as described above. The cells were then incubated with either 100 μM β-ecdysone or 100 μM caged β-ecdysone for 16 hr. The medium was removed and the cells washed once with PBS before addition of an ecdysteroid free medium. The surface of the pre-scored wells was spot illuminated (˜0.25 mm^2) for 10 sec on a light microscope using a 100 W Hg-Arc lamp through an Olympus UAPO 20×/0.40 objective. The cells were then incubated for 6 hr, fixed with 4% formaldehyde in PBS for 60 min, washed with PBS 3×5 min, permeabilized with 0.1% TritonX100 for 10 min, washed with PBS 3×5 min, and blocked with 1% normal donkey serum (Jackson ImmunoResearch catalog #017-000-121) in PBS for 45 min. The cells were subsequently exposed to 300 μL of anti-luciferase pAb (polyclonal goat antibody, Promega, lot #149040) at a concentration of 40 μg/mL in 1% donkey serum in PBS. After incubation for 2 hr at room temperature in a humidified chamber, the cells were washed with PBS 3×15 min and exposed to 300 μL of an Alexa Fluor 568-labeled rabbit anti-goat IgG (20 μg/mL in 1% donkey serum/PBS for 1 hr, Molecular Probes, catalog #A-11079). Unbound antibody was removed by washing with PBS 3×15 min and the cells treated with 300 μL of mounting medium (N-propyl gallate at 6 mg/mL in 1:1 glycerol:PBS). Images were taken using an Olympus IX-70 microscope equipped with a CCD camera.
Light-Driven Spatially-Discrete Luciferase Expression in Transiently Transfected 293T Cells. We examined whether the combination of 4 and spot illumination induces gene activation in a spatially discrete fashion. Transiently transfected 293T cells were incubated with 1 for 16 hr, fixed, permeabilized, exposed to a luciferase antibody, and stained with an Alexa-labeled secondary antibody. […] 293T cells were also exposed to 4, the media replaced with fresh media to remove extracellular 4, and spot illuminated (˜0.25 mm^2) for 10 sec. The cells were then returned to the incubator for 6 hr and subsequently analyzed for luciferase expression.
However, if photo-uncaged intracellular β-ecdysone does migrate to the extracellular environment then it is possible that sites distant from the region of illumination could undergo unintentional gene activation as well. On the other hand, given the small intracellular volume of a typical cell (˜1 pL) it is likely that any uncaged β-ecdysone that escapes from its intracellular locale will be too dilute to effect changes in gene expression profiles at remote sites. We explicitly addressed this possibility by examining spatially-discrete gene activation using spot illumination of cultured 293T cells. Luciferase expression in fixed and permeabilized cells was visually identified via the coupled use of a luciferase antibody and a secondary Alexa-labeled antibody. […] Luciferase expression is not observed in the absence of β-ecdysone (data not shown) nor in the presence of caged β-ecdysone without light (see below). […] Regions outside of the zone of illumination fail to display luciferase expression.

[6] = 293T cells pre-incubated 16 hr with 4, illuminated 1 min
[7] = 100 μM ecdysteroid, not illuminated, versus culture media alone

CC(C)CC[C@@H](O)[C@](C)(O)[C@H]1CC[C@@]2(O)C3=CC(=O)[C@@H]4C[C@@H](O)[C@@H](O)C[C@]4(C)[C@H]3CC[C@]12C [ponasterone A 7, ponasterone A]
Activity relative to β-ecdysone [1]: 1,000 times

COc1cc(COC2CC3(C)C(CC2O)C(=O)C=C2C3CCC3(C)C(C(C)(O)C(O)CCC(C)(C)O)CCC23O)c([N+](=O)[O-])cc1OC (stereo not drawn) [caged β-ecdysone 4]
Luciferase activity relative to maximal activity displayed by β-ecdysone (EcR/RXR [2]; 4 + washing (extracellular 4 removed) + 1 min photolysis): 50%
Post-illumination time at which minimal luciferase activity was first observed (EcR/RXR [2]; [6]): 4 h
Time of maximal gene (luciferase) expression after photolysis (EcR/RXR [2]; [6]): 16 h
Luciferase expression relative to that displayed by β-ecdysone 1 (EcR/RXR [3]; 293T cells treated with 4, 1 min photolysis): approximately 60%
Fold luciferase induction (EcR/RXR [3]; [7]): 6 fold
Fold luciferase induction (EcR/RXR [3]; 100 μM ecdysteroid, not illuminated, versus culture media alone, listed as caged β-ecdysome 4): 6.5 ± 0.1 fold
Fold luciferase induction (EcR/RXR [3]; 100 μM, 1 min hν (348 nm filter, Hg arc lamp)): 50 ± 4 fold
Activity as inducing agent in the luciferase-based gene expression system (in words) (EcR/RXR [3]): virtually inactive
Activity as inducing agent in the luciferase-based gene expression system (in words) (EcR/RXR [3]; listed as caged ecdysteroid): nearly inactive
Photochemical quantum yield φ [4]: 0.034
Luciferase expression by immunofluorescence, without illumination (EcR/RXR [5]): failed to exhibit detectable luciferase expression
Luciferase expression by immunofluorescence after spot illumination (EcR/RXR [5]): spatially discrete luciferase expression is observed
Luciferase expression by immunofluorescence after spot illumination (EcR/RXR [5]; listed as 4): Only those regions exposed to UV light display luciferase production

CC(C)(O)CC[C@@H](O)[C@](C)(O)[C@H]1CC[C@@]2(O)C3=CC(=O)[C@@H]4C[C@@H](O)[C@@H](O)C[C@]4(C)[C@H]3CC[C@]12C [β-ecdysone 1, β-ecdysone, reference compound]
Fold luciferase induction (EcR/RXR [3]; [7]): 88 ± 9 fold
Fold luciferase induction (EcR/RXR [3]; 100 μM ecdysteroid, not illuminated, versus culture media alone, listed as β-ecdysone): ~100 fold
Luciferase expression by immunofluorescence, without illumination (EcR/RXR [5]): global luciferase expression throughout the cell culture
Luciferase expression by immunofluorescence, without illumination (EcR/RXR [5]; listed as 1): luciferase expression (20% transfection efficiency) was observed throughout the general cell population

CC(C)CC[C@@H](O)[C@](C)(O)[C@H]1CC[C@@]2(O)C3=CC(=O)[C@]4(O)C[C@@H](O)[C@@H](O)C[C@]4(C)[C@H]3[C@H](O)C[C@]12C [muristerone 6, muristerone]
Activity relative to β-ecdysone [1]: 1,000 times
